The test system of series [1] is farnesyltransferase activity (pre-Lamin A cleavage and maturation). The series is described as follows: Lamin A processing by western blotting. It is filed as cell-based, human. As to the method: (§1) The following KAT and KDAC inhibitors were used in the nuclear shape rescue screen, incubating cells with the molecules for 16 hours: trichostatin A (1 μM), sodium butyrate (5 mM), tubacin (10 μM), SAHA (5 μM), curcumin (10 μM), garcinol (50 μM), anacardic acid (1 μM), MB-3 (5 μM), 4-(4-chlorophenyl)-2-(2-cyclopentylidenehydrazinyl)thiazole (Compound 2) (50 μM), 4-(4-chlorophenyl)-2-(2-cyclopentylidene-1-(prop-2-yn-1-yl)hydrazinyl)thiazole (Compound 3) (50 μM) and cyclopentylidene-[4-(4-cyanophenyl)thiazol-2-yl)hydrazine (Compound 1) (Remodelin) (10 to 50 μM). For HGPS cellular fitness assays, Remodelin was incubated at 1 μM for 1 to 10 days, renewing the medium every 3 days. For long-term senescence assay, cells were kept and passaged in medium containing 1 μM Remodelin or DMSO only for 12 population doublings. Senescence was assessed after 8 days of Remodelin treatment when cells were at Population Doubling 12, and then after several weeks of Remodelin treatment, when cells reached Population Doubling 24 using the Senescence β-Galactosidase Staining Kit #9860 from Cell Signaling. […]
Total cell extracts were prepared by scraping cells in SDS lysis buffer (4% SDS, 20% glycerol, and 120 mM Tris-HCl, pH 6.8), boiling for 5 minutes at 95° C., followed by 10 strokes through a 25-gauge needle. […] Detection and quantification was performed with an imager (Odyssey; LI-COR Biosciences).
On the technique in general: Immunoblotting shows a protein as a band on a membrane.

For series [2], the system named is HGPS primary fibroblasts (AG11498 and AG06267). Description: Misshapen nuclei in HGPS cells. It is filed as cell-based, human. The note with it: HGPS patient fibroblasts. As to the method: (§2) U2OS and SaOS-2 osteosarcoma cells, HeLa cervical cancer cells, A431 melanoma cells, NCI-SNU5 gastric cancer cells, MRC-5 lung fibroblast cells and Werner syndrome patient-derived SV40 fibroblast cells were grown in Dulbecco's modified Eagle medium (DMEM, Sigma-Aldrich) supplemented with 10% fetal bovine serum (BioSera), 2 mM L-glutamine, 100 U per ml penicillin, 100 μg ml^−1 streptomycin. Normal skin primary fibroblasts GM03440 and Hutchinson Gilford Progeria Syndrome (HGPS) skin primary fibroblasts AG11498 and AG06297 were purchased from Coriell Cell Repositories and used between passage number 9-12 and 20-23 respectively. Cells were grown in DMEM supplemented as above. RPE-1 retinal pigment epithelial cells were grown in DMEM and Ham F12 mix medium supplemented as above and buffered with sodium bicarbonate. HMV-II melanoma cell line, 22RV1 prostate carcinoma cells, NCI-H82 and NCI-H69 lung carcinoma cells, and NCI-N87 gastric cancer cell lines were grown in RPMI-1640 medium (Sigma-Aldrich) supplemented as above. Stably transfected U2OS cells were maintained in standard medium containing 1 mg ml^−1 G418 (Invitrogen). The siRNA duplexes were obtained from Life Sciences: Lamin A/C stealth RNAi: […] (SEQ ID NO: 1) and […] (SEQ ID NO: 2), NAT10 stealth RNAi: […] (SEQ ID NO: 3), and as control siRNA, stealth RNAi negative control duplexes were used. Plasmid DNA and siRNA transfections were carried out using Lipofectamine 2000 and Lipofectamine RNAiMax (Life Sciences) respectively, following the manufacturer's instructions. Cells were analysed 48 to 72 hours after transfection.
as §1, with “Signaling. Nocodazole, colchicine and latrunculin A (Sigma-Aldrich) were used at 200 ng/ml, 1 μg/ml and 1 μM respectively.” for “Signaling.”

Series [3] deals with Lamin A/C depleted (siLMNA) U2OS cells. The series is described as follows: Nuclear shape rescue (DAPI staining, nuclear circularity) in Lamin A/C depleted cells. It is filed as cell-based, human. The note with it: 16 hours, Compound 2 and 3 50 μM, MB-3 5 μM, FTI 5 μM, nocodazole 200 ng/ml, colchicine 1 μg/ml, latrunculin A 1 μM. The protocol:
as §2
(§3) The following KAT and KDAC inhibitors were used in the nuclear shape rescue screen, incubating cells with the molecules for 16 hours: trichostatin A (1 μM), sodium butyrate (5 mM), tubacin (10 μM), SAHA (5 μM), curcumin (10 μM), garcinol (50 μM), anacardic acid (1 μM), MB-3 (5 μM), 4-(4-chlorophenyl)-2-(2-cyclopentylidenehydrazinyl)thiazole (Compound 2) (50 μM), 4-(4-chlorophenyl)-2-(2-cyclopentylidene-1-(prop-2-yn-1-yl)hydrazinyl)thiazole (Compound 3) (50 μM) and cyclopentylidene-[4-(4-cyanophenyl)thiazol-2-yl)hydrazine (Compound 1) (Remodelin) (10 to 50 μM). For HGPS cellular fitness assays, Remodelin was incubated at 1 μM for 1 to 10 days, renewing the medium every 3 days. For long-term senescence assay, cells were kept and passaged in medium containing 1 μM Remodelin or DMSO only for 12 population doublings. Senescence was assessed after 8 days of Remodelin treatment when cells were at Population Doubling 12, and then after several weeks of Remodelin treatment, when cells reached Population Doubling 24 using the Senescence β-Galactosidase Staining Kit #9860 from Cell Signaling. Nocodazole, colchicine and latrunculin A (Sigma-Aldrich) were used at 200 ng/ml, 1 μg/ml and 1 μM respectively. Aphidicolin (Sigma-Aldrich) was used at 5 μg/ml for 16 h. Farnesyltransferase inhibitor FTI-277 was purchased from Tocris Bioscience and used at 5 μM. ATMi (KU55933) and ATRi (ATR-45) were obtained from Tocris Bioscience and from the Ohio State University respectively and used at 10 μM and 500 nM. Pifithrin alpha (Sigma-Aldrich) was used at 10 μM.
CellProfiler software was used to quantify nuclear circularity and nuclear area from DAPI staining pictures, using the “object size shape” measurement. The AreaShape measurement allowed the calculation of the Form Factor index ([…]) corresponding to circularity (a Form Factor of 1 reflecting a perfect circle), as well as the calculation of nuclear Area.
Lamin A/C was depleted by siRNA in U2OS cells (siLMNA) to induce misshapen nuclei. Cells were then treated for 16 h with various analogues of Compound 2 and nuclear shape rescue was analysed by DAPI staining. The results are shown in FIG. 18 and FIG. 19 which display the structures of the tested molecules and their ability to rescue nuclear shape.

The subject of the next series is normal human fibroblasts. The series is described as follows: Nuclear shape of normal fibroblasts, with or without FTI. The format is cell-based.
Source text: FIG. 11: Remodelin prevents FTI induced nuclear shape defects in non-progeric cells. A) Analysis of Lamin A/C processing after Remodelin or FTI treatment, showing that Remodelin is not a FTI. B) Representative pictures of Lamin A/C IF staining after the indicated treatments. Arrows indicate FTI induced misshapen nuclei in normal fibroblasts. Scale bar: 50 μm. C) Quantification of misshapen nuclei with the indicated cell lines and inhibitor treatments (means of three independent experiments±s.e.m. n>178). D) Representative pictures of DAPI staining showing effects of FTI and Remodelin on nuclear shape of U2OS cells. Scale bars: 20 μm.
U2OS and SaOS-2 osteosarcoma cells, HeLa cervical cancer cells, A431 melanoma cells, NCI-SNU5 gastric cancer cells, MRC-5 lung fibroblast cells and Werner syndrome patient-derived SV40 fibroblast cells were grown in Dulbecco's modified Eagle medium (DMEM, Sigma-Aldrich) supplemented with 10% fetal bovine serum (BioSera), 2 mM L-glutamine, 100 U per ml penicillin, 100 μg ml^−1 streptomycin. […] Cells were analysed 48 to 72 hours after transfection.
as §1, with “For HGPS cellular fitness assays, Remodelin was incubated at 1 μM for 1 to 10 days, renewing the medium every 3 days. For long-term senescence assay, cells were kept and passaged in medium containing 1 μM Remodelin or DMSO only for 12 population doublings.” left out

Series [4] relates to U2OS cells transfected with siCT or siLMNA. Description: Cell density after cycloheximide (DAPI staining). It is filed as cell-based, human. The note with it: 24 h treatment. The protocol:
FIG. 16: Compound 2 decreases protein translation of Lamin A/C depleted cells. A) U2OS cells transfected with siRNA control (siCT) or siRNA Lamin A/C (siLMNA) were plated at the same density, treated with cycloheximide (CHX) for 24 h to inhibit protein synthesis and stained with DAPI. […] B) Protein synthesis was measured by quantifying the incorporation of HPG, a clickable analogue of methionine.

In series [5] the test system is LMNA knock out (KO) U2OS cell line. Description: Cell growth of LMNA KO versus LMNA WT U2OS cells (IncuCyte ZOOM). It is filed as cell-based, human. The note with it: U2OS LMNA KO. From the text: LMNA knock out (KO) U2OS cell line was engineered using CripR/Cas9 technology. The sensitivity of LMNA KO cells to Compound 2 was compared to cells expressing wild type LMNA (LMNA WT). Cell growth was monitored automatically over time using an IncuCyte ZOOM®. The results are shown in FIG. 21 which has been split into two graphs for easier reading of the curves.

The subject of a further series is HGPS AG11498 cells. Description: Senescence-associated β-galactosidase in HGPS cells. It is filed as cell-based, human. The note with it: HGPS AG11498; Remodelin 1 μM, Pifithrin alpha 10 μM. The protocol:
as §3

Series [6] concerns cells (sub-cellular distribution). The series is described as follows: Fluorescent labelling of clickable molecules (sub-cellular distribution). The note with it: 2 hours pre-incubation, Alexa fluor 488 Azide click. It is filed as cell-based. The protocol: Cells were pre-incubated with clickable molecules Compound 3 or Reference Compound A (1-Chloro-4-ethynilbenzene, purchased from Sigma-Aldrich) for 2 hours before being fixed and permeabilised as described above. Click reaction was prepared using Invitrogen Click-iT reagents with Alexa fluor 488 Azide and incubated with fixed cells for 1 hour in the dark. In case of co-labelling with another protein, the click reaction was performed before the antibody incubations.

Where a name gives a salt, the structure may show the parent alone.

For the molecule `COC(=O)[C@H](CCSC)NC(=O)c1ccc(NC[C@@H](N)CS)cc1-c1ccccc1` [FTI, reference compound], the “pre-Lamin A processing” value in series [1] is listed as “caused accumulation of the pre-Lamin A intermediate”. For the same molecule, in series [2], the “misshapen nuclei / nuclear shape of HGPS cells” value is “improves the nuclear shape of HGPS cells”. Further, the “nuclear shape / nuclear circularity rescue” value in series [3] is on record as “does not improve nuclear morphology in LMNA-depleted cells”. For the same molecule, the “nuclear shape of normal cells” value with normal human fibroblasts is recorded as “has the opposite effect on normal cells”.
For the molecule `COc1cc2c(c(OC)c1OC)-c1ccc(OC)c(=O)cc1[C@@H](NC(C)=O)CC2` [colchicine], the “misshapen nuclei / nuclear shape of HGPS cells” value in series [2] is “also rescued the nuclear shape defects”. Moreover, the “nuclear shape / nuclear circularity rescue” value in series [3] is “also rescued the nuclear shape defects of siLMNA cells”.
The corresponding values for `COC(=O)Nc1nc2ccc(C(=O)c3cccs3)cc2[nH]1` [nocodazole] are “also rescued the nuclear shape defects” and “also rescued the nuclear shape defects of siLMNA cells”.
Regarding `C/C1=C/C(=O)O[C@@H]2C[C@@H](CC[C@H](C)/C=C\C=C\CC1)O[C@@](O)([C@@H]1CSC(=O)N1)C2` [latrunculin A], in series [3], the “nuclear shape / nuclear circularity rescue” value is reported as “increased nuclear distortion”.
Take `C[C@@H]1C[C@@H]([C@H](O)CC2CC(=O)NC(=O)C2)C(=O)[C@@H](C)C1` [CHX, cycloheximide]: the “resistance of siLMNA versus siCT cells to protein synthesis inhibition” value in series [4] is given as “siLMNA cells are more resistant to CHX”.
Take `C=C1C(=O)OC(CCC)C1C(=O)O` (stereo not drawn) [MB-3]: the “nuclear shape / nuclear circularity rescue” value in series [3] was “did not improve nuclear circularity”.
For the molecule `FC(F)(F)c1ccc(-c2csc(NN=C3CCCC3)n2)cc1` [Compound 13, 4-(4-Trifluoromethylphenyl)-2-(2-cyclopentylidenehydrazinyl)thiazole Hydrobromide Salt], the “potency on LMNA KO cell growth inhibition compared to Compound 2” value in series [5] was “increased potency of Compound 13, compared to Compound 2”.
For Pifithrin [reference compound], in the series with HGPS AG11498 cells, the “senescence of HGPS cells (β-galactosidase positive cells)” value is “none of these compounds decrease the senescence”.
Regarding `C#Cc1ccc(Cl)cc1` [Reference Compound A, 1-Chloro-4-ethynilbenzene, reference compound], the “nuclear shape / nuclear circularity rescue” value in series [3] was “inactive”. Further, the “sub-cellular distribution of fluorescently labelled molecule” value in series [6] is “little or no cellular staining”.

The values are drawn from patent publication US9809562B2, “NAT10 modulators for treating or preventing laminopathies, aging and cancer” (CAMBRIDGE ENTERPRISE LIMITED, priority 2014, dated 2017).
